Source: the NIST ThermoML archive (doi:10.1016/j.jct.2015.05.001)
Where “and” joins values, the source holds several entries; their conditions need not be identical. Identical values can stand only once. ± gives the expanded uncertainty stated by the source.

Columns and labels:
[1] = Molar enthalpy of transition or fusion; conditions: Crystal; DSC
[2] = for Triple point temperature: DTA

Brc1ccc2c(c1)Cc1cc(Br)ccc1-2 [2,7-dibromofluorene]
Conditions | Molar enthalpy of transition or fusion [kcal/mol]
[1] | 5.43 ± 0.124

[2], Crystal
Conditions | vapor or sublimation pressure
361.15 K, Calculated from knudsen effusion weight loss | 9.5e-05 ± 2e-05 kPa and 9.7e-05 ± 2e-05 kPa and 9.6e-05 ± 2e-05 kPa
363.14 K, Calculated from knudsen effusion weight loss | 0.000119 ± 2e-05 kPa and 0.000118 ± 2e-05 kPa
365.11 K, Calculated from knudsen effusion weight loss | 0.000147 ± 2.1e-05 kPa and 0.000148 ± 2.1e-05 kPa and 0.000144 ± 2.1e-05 kPa
367.16 K, Calculated from knudsen effusion weight loss | 0.000177 ± 2.1e-05 kPa and 0.000179 ± 2.1e-05 kPa
369.11 K, Calculated from knudsen effusion weight loss | 0.000218 ± 2.1e-05 kPa and 0.000214 ± 2.1e-05 kPa and 0.000215 ± 2.1e-05 kPa
371.1 K, Calculated from knudsen effusion weight loss | 0.000267 ± 2.2e-05 kPa and 0.000261 ± 2.2e-05 kPa
373.15 K, Calculated from knudsen effusion weight loss | 0.000318 ± 2.3e-05 kPa and 0.000315 ± 2.3e-05 kPa and 0.000319 ± 2.3e-05 kPa
375.12 K, Calculated from knudsen effusion weight loss | 0.000392 ± 2.4e-05 kPa and 0.000388 ± 2.4e-05 kPa and 0.000382 ± 2.4e-05 kPa
377.12 K, Calculated from knudsen effusion weight loss | 0.000472 ± 2.6e-05 kPa and 0.000478 ± 2.6e-05 kPa and 0.000463 ± 2.6e-05 kPa
379.15 K, Calculated from knudsen effusion weight loss | 0.000556 ± 2.8e-05 kPa and 0.00056 ± 2.8e-05 kPa and 0.000563 ± 2.8e-05 kPa
381.12 K, Calculated from knudsen effusion weight loss | 0.000678 ± 3.1e-05 kPa and 0.000687 ± 3.1e-05 kPa and 0.000674 ± 3.1e-05 kPa
382.23 K, Closed cell (Static) method | 0.000732 ± 0.00014 kPa
383.12 K, Calculated from knudsen effusion weight loss | 0.000809 ± 3.5e-05 kPa and 0.000827 ± 3.5e-05 kPa and 0.000832 ± 3.6e-05 kPa
384.26 K, Closed cell (Static) method | 0.000874 ± 0.00014 kPa
386.08 K, Closed cell (Static) method | 0.001029 ± 0.00014 kPa
388.21 K, Closed cell (Static) method | 0.001254 ± 0.00014 kPa
390.11 K, Closed cell (Static) method | 0.001472 ± 0.00015 kPa
392.14 K, Closed cell (Static) method | 0.001751 ± 0.00015 kPa
394.16 K, Closed cell (Static) method | 0.002104 ± 0.00016 kPa
396.08 K, Closed cell (Static) method | 0.002489 ± 0.00017 kPa
398.07 K, Closed cell (Static) method | 0.002922 ± 0.00018 kPa

Conditions | Triple point temperature [K]
[2], Crystal | 438.79 ± 0.39

Brc1ccc2c(c1)Cc1ccccc1-2 [2-bromofluorene]
Conditions | Molar enthalpy of transition or fusion [kcal/mol]
[1] | 4.07 ± 0.098

[2]
Conditions | vapor or sublimation pressure
327.17 K, Crystal, Calculated from knudsen effusion weight loss | 0.000118 ± 2e-05 kPa and 0.000119 ± 2e-05 kPa
329.13 K, Crystal, Calculated from knudsen effusion weight loss | 0.00015 ± 2.1e-05 kPa and 0.000148 ± 2.1e-05 kPa
331.09 K, Crystal, Calculated from knudsen effusion weight loss | 0.000186 ± 2.1e-05 kPa and 0.000183 ± 2.1e-05 kPa
333.16 K, Crystal, Calculated from knudsen effusion weight loss | 0.000223 ± 2.2e-05 kPa and 0.000225 ± 2.2e-05 kPa and 0.000229 ± 2.2e-05 kPa
335.14 K, Crystal, Calculated from knudsen effusion weight loss | 0.00028 ± 2.2e-05 kPa and 0.000275 ± 2.2e-05 kPa and 0.000279 ± 2.2e-05 kPa
337.11 K, Crystal, Calculated from knudsen effusion weight loss | 0.000347 ± 2.3e-05 kPa and 0.000346 ± 2.3e-05 kPa and 0.000343 ± 2.3e-05 kPa
339.16 K, Crystal, Calculated from knudsen effusion weight loss | 0.000417 ± 2.5e-05 kPa and 0.000416 ± 2.5e-05 kPa and 0.000425 ± 2.5e-05 kPa
341.14 K, Crystal, Calculated from knudsen effusion weight loss | 0.000515 ± 2.7e-05 kPa and 0.000501 ± 2.7e-05 kPa
343.1 K, Crystal, Calculated from knudsen effusion weight loss | 0.000627 ± 3e-05 kPa and 0.000626 ± 3e-05 kPa and 0.000634 ± 3e-05 kPa
345.16 K, Crystal, Calculated from knudsen effusion weight loss | 0.000749 ± 3.3e-05 kPa and 0.000747 ± 3.3e-05 kPa and 0.000758 ± 3.3e-05 kPa
347.09 K, Crystal, Calculated from knudsen effusion weight loss | 0.000928 ± 3.8e-05 kPa and 0.000929 ± 3.9e-05 kPa and 0.000909 ± 3.8e-05 kPa
349.09 K, Crystal, Calculated from knudsen effusion weight loss | 0.00112 ± 8.9e-05 kPa and 0.001125 ± 8.9e-05 kPa and 0.001127 ± 9e-05 kPa
350.8 K, Crystal, Closed cell (Static) method | 0.001323 ± 0.00013 kPa
352.79 K, Crystal, Closed cell (Static) method | 0.001593 ± 0.00014 kPa
354.74 K, Crystal, Closed cell (Static) method | 0.001921 ± 0.00014 kPa
356.73 K, Crystal, Closed cell (Static) method | 0.002274 ± 0.00015 kPa
358.7 K, Crystal, Closed cell (Static) method | 0.002726 ± 0.00016 kPa
360.67 K, Crystal, Closed cell (Static) method | 0.003206 ± 0.00018 kPa
362.65 K, Crystal, Closed cell (Static) method | 0.003848 ± 0.00019 kPa
364.63 K, Crystal, Closed cell (Static) method | 0.00452 ± 0.00022 kPa
366.6 K, Crystal, Closed cell (Static) method | 0.005367 ± 0.00024 kPa
368.56 K, Crystal, Closed cell (Static) method | 0.006271 ± 0.00028 kPa
370.56 K, Crystal, Closed cell (Static) method | 0.007492 ± 0.00032 kPa
372.53 K, Crystal, Closed cell (Static) method | 0.008716 ± 0.00036 kPa
374.47 K, Metastable liquid, Closed cell (Static) method | 0.012 ± 0.00049 kPa
374.5 K, Crystal, Closed cell (Static) method | 0.0103 ± 0.00042 kPa
376.47 K, Crystal, Closed cell (Static) method | 0.01202 ± 0.00049 kPa
376.47 K, Metastable liquid, Closed cell (Static) method | 0.01362 ± 0.00053 kPa
378.44 K, Crystal, Closed cell (Static) method | 0.01403 ± 0.00054 kPa
378.44 K, Metastable liquid, Closed cell (Static) method | 0.01541 ± 0.00056 kPa
380.4 K, Crystal, Closed cell (Static) method | 0.01634 ± 0.00057 kPa
380.4 K, Metastable liquid, Closed cell (Static) method | 0.01749 ± 0.00059 kPa
382.39 K, Metastable liquid, Closed cell (Static) method | 0.01992 ± 0.00062 kPa
384.36 K, Metastable liquid, Closed cell (Static) method | 0.02244 ± 0.00066 kPa
386.34 K, Metastable liquid, Closed cell (Static) method | 0.02529 ± 0.00071 kPa
388.31 K, Metastable liquid, Closed cell (Static) method | 0.02854 ± 0.00076 kPa
390.28 K, Closed cell (Static) method, Liquid | 0.03201 ± 0.00081 kPa
392.25 K, Closed cell (Static) method, Liquid | 0.03602 ± 0.00087 kPa
394.21 K, Closed cell (Static) method, Liquid | 0.04022 ± 0.00094 kPa
396.18 K, Closed cell (Static) method, Liquid | 0.04506 ± 0.001 kPa
398.13 K, Closed cell (Static) method, Liquid | 0.05046 ± 0.0011 kPa
400.11 K, Closed cell (Static) method, Liquid | 0.05625 ± 0.0012 kPa
402.06 K, Closed cell (Static) method, Liquid | 0.0628 ± 0.0013 kPa
404.05 K, Closed cell (Static) method, Liquid | 0.06988 ± 0.0014 kPa
405.99 K, Closed cell (Static) method, Liquid | 0.0774 ± 0.0015 kPa
407.97 K, Closed cell (Static) method, Liquid | 0.08499 ± 0.0016 kPa
409.95 K, Closed cell (Static) method, Liquid | 0.0938 ± 0.0018 kPa
411.9 K, Closed cell (Static) method, Liquid | 0.1045 ± 0.0019 kPa
413.88 K, Closed cell (Static) method, Liquid | 0.1164 ± 0.0021 kPa
415.84 K, Closed cell (Static) method, Liquid | 0.1264 ± 0.0023 kPa
417.81 K, Closed cell (Static) method, Liquid | 0.1398 ± 0.0021 kPa
419.77 K, Closed cell (Static) method, Liquid | 0.1534 ± 0.0022 kPa

Conditions | Triple point temperature [K]
[2], Crystal | 387.39 ± 0.39
